# Experimental data reported in US11866483B2, “Fibrosis-inhibiting composition, cells producing same, and cell sheet comprising said cells” (KanonCure, Inc., priority 2018, dated 2024).
# Key:
# MMP-2 = assay: Western blotting of culture supernatant of UE7T-13 cells, MMP-2; assay type: cell-based; conditions: 15 μM IC-2, UE7T-13 cells, culture supernatant Day 9, vs 0.1% DMSO
# Method: (§1) The number of the culture dishes prepared was 6.
# (§2) The culture medium was exchanged in the same manner as Day 0. […] That is, the cells of chemical-untreated group, of which culture medium was collected for MSC, were seeded on 3 culture dishes with a diameter of 10 cm.
# (§3) (2) A 12 ml aliquot of the supernatant was transferred to an Amicon Ultra-15 Centrifugal Filter Unit and was centrifuged at 5,000 g for 60 to 90 min.
# (§4) (3) The absorbance of the enriched culture supernatant (secretome) was measured using a NanoDrop at 280 nm and the protein level was assayed. The blank culture medium and 2× modified RIPA buffer were added to adjust the protein concentration to 1.0 μg/μl. Then, a sonicator (BioRuptur manufactured by COSMO BIO, Tokyo, Japan) was used to perform the total 1 min and 4 cycles of sonication, each cycle including sonication at 200 W for 15 sec and a pause for 30 sec in ice bath. Then, 5×SDS sample buffer was added to adjust the protein concentration to 0.8 μg/μl. Finally, a block incubator (IKA, Staufen, Germany) was used for heat denaturing at 98° C. for 5 min. […]
# (§5) After completion of the primary antibody reaction, the membranes were washed in a suitable volume of TBS-T for 10 min 3 times. […] After that, 1 ml of ECL Prime liquid (GE Healthcare Life Sciences) was applied to each membrane of which chemiluminescence was detected with a LAS-4000 (Fujifilm Corporation, Tokyo, Japan).
# thioredoxin (TRX) = conditions: 15 μM IC-2, UE7T-13 cells, culture supernatant Day 9
# Method: Expression and production of MMP family members and TRX in cultured cells or the secreted products of those cells were determined by Western blotting and ELISA.
# Cells: bone marrow-derived mesenchymal stem cell line, UE7T-13 cells.
# UE7T-13 cells were seeded on each culture dish with a diameter of 10 cm such that the cell count in each dish was 9.0×10^3 cells/cm^2. The number of the culture dishes prepared was 6.
# Cells in the remaining 3 culture dishes were treated with DMSO as control. Specifically, DMSO was added by completely exchanging the culture medium with DMEM/10% FBS containing DMSO at the final concentration of 0.1%.
# For the DMSO treatment control, the culture medium was completely exchanged with DMEM/0.05% FBS containing DMSO at the final concentration of 0.1%. For the MSC group, the culture medium was completely exchanged with DMEM/0.05% FBS.
# (1) A 5 ml aliquot of culture medium was collected from the culture dishes and these aliquots were combined in one tube for each group. […]
# The aliquots of culture supernatants collected at Day 9 for ELISA assay were used to determine the production of thioredoxin by ELISA. […] The absorbance at 450 nm was measured using a microplate reader (Tecan Group Ltd). The content of thioredoxin in the culture supernatants was calculated from the absorbance using the calibration curve.
# MMP-13 (active form) = assay: Western blotting of culture supernatant of UE7T-13 cells, MMP-13; assay type: cell-based; conditions: 15 μM IC-2, UE7T-13 cells, culture supernatant Day 9, vs 0.1% DMSO
# Method: as §1, §2, §3, §4, §5
# MMP-1 = assay: Western blotting of culture supernatant of UE7T-13 cells, MMP-1; assay type: cell-based; conditions: 15 μM IC-2, UE7T-13 cells, culture supernatant Day 9, vs 0.1% DMSO
# Method: as §1, §2, §3, §4, §5
# MMP-14 = assay: Western blotting of culture supernatant of UE7T-13 cells, MMP-14; assay type: cell-based; conditions: 15 μM IC-2, UE7T-13 cells, culture supernatant Day 9, vs 0.1% DMSO
# Method: as §1, §2, §3, §4, §5
compound,measurement,setting,value
"O=C1[C@H](c2ccccc2)N2C(=O)CCN(C(=O)NCc3ccccc3)[C@H]2CN1Cc1cccc2ccccc12 [IC-2, (6S, 9aS)-6-phenyl-8-naphthalen-1-ylmethyl-4,7-dioxo-hexahydro-pyrazino[1,2-a] pyrimidine-1-carbocylic acid benzylamide]",MMP-2 increase as compared to DMSO control group (chemiluminescence band intensity),MMP-2,about 1.5 fold
same,"production of thioredoxin, increase (ELISA)",thioredoxin (TRX),1.5 fold
same,MMP-13 (active form) increase as compared to DMSO control group (chemiluminescence band intensity),MMP-13 (active form),about 5.1 fold
same,MMP-1 increase as compared to DMSO control group (chemiluminescence band intensity),MMP-1,about 4.1 fold
same,MMP-14 increase as compared to DMSO control group (chemiluminescence band intensity),MMP-14,about 2.1 fold
